# Tests used:
# Assay in all cases: in vitro antibacterial evaluation, MIC by broth dilution
# Format in all cases: cell-based
# [1] = system: Escherichia coli; conditions: 18 hours at 35° C.
# [2] = system: Enterococcus sp.; conditions: broth dilution, 18 hours at 35° C.
# Method in brief: (§1)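 Following National Committee for Clinical Laboratory Standards recommendations (M7-A2), susceptibility was measured by dilution in Muller-Hinton II […]. Bacteria were seeded at 5×10^5 CFU/mL against compound concentrations from 64 down to 0.06 μg/mL.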
# [3] = system: Streptococcus sp.; conditions: broth dilution, 18 hours at 35° C.
# Method in brief: as §1
# [4] = system: Staphylococcus sp.; conditions: broth dilution, 18 hours at 35° C.; for MIC Staphylococcus aureus (GC 1131): strain GC 1131; for MIC Staphylococcus aureus (ATCC 29213): strain ATCC 29213; for MIC Staphylococcus aureus (GC 3051): strain GC 3051; for MIC Staphylococcus aureus (GC 3053): strain GC 3053; for MIC Staphylococcus aureus (GC 4541): strain GC 4541; for MIC Staphylococcus aureus (GC 4542): strain GC 4542; for MIC Staphylococcus aureus-SMITH (GC 4543): strain GC 4543; for MIC Staphylococcus aureus (GC 4544): strain GC 4544; for MIC Staphylococcus aureus (GC 4545): strain GC 4545; for MIC Staphylococcus haemolyticus (GC 4546): strain GC 4546; for MIC Coagulase Negative Staphylococcus (GC 4547): strain GC 4547; for MIC Coagulase Negative Staphylococcus (GC 4548): strain GC 4548; for MIC Coagulase Negative Staphylococcus (GC 4549): strain GC 4549; for MIC Coagulase Negative Staphylococcus (GC 4551): strain GC 4551
# Method in brief: as §1
# [5] = inoculum 5×10^5 CFU/mL, strain ATCC 29212
# [6] = inoculum 5×10^5 CFU/mL, strain GC 2242
# [7] = inoculum 5×10^5 CFU/mL, strain GC 2243
# [8] = inoculum 5×10^5 CFU/mL, strain GC 2691
# [9] = inoculum 5×10^5 CFU/mL, strain GC 3059
# [10] = inoculum 5×10^5 CFU/mL, strain GC 4552
# [11] = inoculum 5×10^5 CFU/mL, strain GC 4553
# [12] = inoculum 5×10^5 CFU/mL, strain GC 4554
# [13] = inoculum 5×10^5 CFU/mL, strain GC 4556
# [14] = inoculum 5×10^5 CFU/mL, strain GC 4557
# [15] = inoculum 5×10^5 CFU/mL, strain GC 4558
# [16] = inoculum 5×10^5 CFU/mL, strain GC 6189
# [17] = inoculum 5×10^5 CFU/mL, strain ATCC 6301
# [18] = inoculum 5×10^5 CFU/mL, strain GC 1894
# [19] = inoculum 5×10^5 CFU/mL, strain GC 4563
# [20] = inoculum 5×10^5 CFU/mL, strain GC 4564
# [21] = inoculum 5×10^5 CFU/mL, strain GC 4565
smiles,measurement,setting,value
CC(c1ccc(Cl)cc1)C1NC(=O)CNC(=O)C(CO)NC(=O)C(C(O)C2CNC(=N)N2C2OC(CO)C(O)C(O)C2O)NC(=O)C(C(O)C2CNC(=N)N2)NC(=O)C(Cc2ccc(OC3OC(CO)C(OC4OC5COC(c6ccccc6)OC5C(O)C4O)C(O)C3O)cc2)NC1=O (centres unmarked) [Example 195],MIC Escherichia coli (ATCC 25922),[1],>0.5 µg/mL
same,MIC Escherichia coli (GC 4559),[1],>0.5 µg/mL
same,MIC Escherichia coli (GC 4560),[1],0.5 µg/mL
same,MIC Enterococcus avium (GC 4558),[2],0.5 µg/mL
same,MIC Enterococcus faecalis (ATCC 29212),[2],0.5 µg/mL
same,MIC Enterococcus faecalis (GC 2242),[2],0.5 µg/mL
same,MIC Enterococcus faecalis (GC 2691),[2],0.5 µg/mL
same,MIC Enterococcus faecalis (GC 3059),[2],0.5 µg/mL
same,MIC Enterococcus faecalis (GC 4552),[2],0.5 µg/mL
same,MIC Enterococcus faecalis (GC 4553),[2],0.5 µg/mL
same,MIC Enterococcus faecalis (GC 4554),[2],0.5 µg/mL
same,MIC Enterococcus faecalis (GC 6189),[2],0.5 µg/mL
same,MIC Enterococcus faecium (GC 2243),[2],0.5 µg/mL
same,MIC Enterococcus faecium (GC 4556),[2],0.5 µg/mL
same,MIC Enterococcus faecium (GC 4557),[2],0.5 µg/mL
same,MIC Enterococcus faecalis (ATCC 29212),[2]; [5],0.5 µg/mL
same,MIC Enterococcus faecalis (GC 2242),[2]; [6],0.5 µg/mL
same,MIC Enterococcus faecium (GC 2243),[2]; [7],0.5 µg/mL
same,MIC Enterococcus faecalis (GC 2691),[2]; [8],0.5 µg/mL
same,MIC Enterococcus faecalis (GC 3059),[2]; [9],0.5 µg/mL
same,MIC Enterococcus faecalis (GC 4552),[2]; [10],0.5 µg/mL
same,MIC Enterococcus faecalis (GC 4553),[2]; [11],0.5 µg/mL
same,MIC Enterococcus faecalis (GC 4554),[2]; [12],0.5 µg/mL
same,MIC Enterococcus faecium (GC 4556),[2]; [13],0.5 µg/mL
same,MIC Enterococcus faecium (GC 4557),[2]; [14],0.5 µg/mL
same,MIC Enterococcus avium (GC 4558),[2]; [15],0.5 µg/mL
same,MIC Enterococcus faecalis (GC 6189),[2]; [16],0.5 µg/mL
same,MIC Streptococcus agalactiae (GC 4564),[3],0.5 µg/mL
same,MIC Streptococcus pneumoniae (ATCC 6301),[3],0.12 µg/mL
same,MIC Streptococcus pneumoniae (GC 1894),[3],0.12 µg/mL
same,MIC Streptococcus pneumoniae (GC 4565),[3],0.12 µg/mL
same,MIC Streptococcus pyogenes (GC 4563),[3],0.12 µg/mL
same,MIC Streptococcus pneumoniae (ATCC 6301),[3]; [17],0.12 µg/mL
same,MIC Streptococcus pneumoniae (GC 1894),[3]; [18],0.12 µg/mL
same,MIC Streptococcus pyogenes (GC 4563),[3]; [19],0.12 µg/mL
same,MIC Streptococcus agalactiae (GC 4564),[3]; [20],0.5 µg/mL
same,MIC Streptococcus pneumoniae (GC 4565),[3]; [21],0.12 µg/mL
same,MIC Staphylococcus aureus (GC 1131),[4]; inoculum 5×10^5 CFU/mL,0.5 µg/mL
same,MIC Staphylococcus aureus (ATCC 29213),[4],0.5 µg/mL
same,MIC Staphylococcus aureus (GC 1131),[4],0.5 µg/mL
same,MIC Staphylococcus aureus (GC 3051),[4],0.5 µg/mL
same,MIC Staphylococcus aureus (GC 3053),[4],0.5 µg/mL
same,MIC Staphylococcus aureus (GC 4541),[4],0.5 µg/mL
same,MIC Staphylococcus aureus (GC 4542),[4],0.5 µg/mL
same,MIC Staphylococcus aureus-SMITH (GC 4543),[4],0.5 µg/mL
same,MIC Staphylococcus aureus (GC 4544),[4],0.5 µg/mL
same,MIC Staphylococcus aureus (GC 4545),[4],0.5 µg/mL
same,MIC Staphylococcus haemolyticus (GC 4546),[4],2 µg/mL
same,MIC Coagulase Negative Staphylococcus (GC 4547),[4],4 µg/mL
same,MIC Coagulase Negative Staphylococcus (GC 4548),[4],2 µg/mL
same,MIC Coagulase Negative Staphylococcus (GC 4549),[4],1 µg/mL
same,MIC Coagulase Negative Staphylococcus (GC 4551),[4],4 µg/mL
same,MIC Coagulase Negative Staphylococcus (GC 6257),[4]; strain GC 6257,2 µg/mL
CC(c1ccccc1)C1NC(=O)CNC(=O)C(CO)NC(=O)C(C(O)C2CNC(=N)N2C2OC(CO)C(O)C(O)C2O)NC(=O)C(C(O)C2CNC(=N)N2)NC(=O)C(Cc2ccc(OC3OC(CO)C(OC4OC5COC6(CCSCC6)OC5C(O)C4O)C(O)C3O)cc2)NC1=O (centres unmarked) [Example 217],MIC Escherichia coli (ATCC 25922),[1],64 µg/mL
same,MIC Escherichia coli (GC 4559),[1],32 µg/mL
same,MIC Escherichia coli (GC 4560),[1],2 µg/mL
same,MIC Enterococcus avium (GC 4558),[2],16 µg/mL
same,MIC Enterococcus faecalis (ATCC 29212),[2],16 µg/mL
same,MIC Enterococcus faecalis (GC 2242),[2],16 µg/mL
same,MIC Enterococcus faecalis (GC 2691),[2],16 µg/mL
same,MIC Enterococcus faecalis (GC 3059),[2],32 µg/mL
same,MIC Enterococcus faecalis (GC 4552),[2],16 µg/mL
same,MIC Enterococcus faecalis (GC 4553),[2],32 µg/mL
same,MIC Enterococcus faecalis (GC 4554),[2],32 µg/mL
same,MIC Enterococcus faecalis (GC 6189),[2],16 µg/mL
same,MIC Enterococcus faecium (GC 2243),[2],16 µg/mL
same,MIC Enterococcus faecium (GC 4556),[2],16 µg/mL
same,MIC Enterococcus faecium (GC 4557),[2],8 µg/mL
same,MIC Enterococcus faecalis (ATCC 29212),[2]; [5],16 µg/mL
same,MIC Enterococcus faecalis (GC 2242),[2]; [6],16 µg/mL
same,MIC Enterococcus faecium (GC 2243),[2]; [7],16 µg/mL
same,MIC Enterococcus faecalis (GC 2691),[2]; [8],16 µg/mL
same,MIC Enterococcus faecalis (GC 3059),[2]; [9],32 µg/mL
same,MIC Enterococcus faecalis (GC 4552),[2]; [10],16 µg/mL
same,MIC Enterococcus faecalis (GC 4553),[2]; [11],32 µg/mL
same,MIC Enterococcus faecalis (GC 4554),[2]; [12],32 µg/mL
same,MIC Enterococcus faecium (GC 4556),[2]; [13],16 µg/mL
same,MIC Enterococcus faecium (GC 4557),[2]; [14],8 µg/mL
same,MIC Enterococcus avium (GC 4558),[2]; [15],16 µg/mL
same,MIC Enterococcus faecalis (GC 6189),[2]; [16],16 µg/mL
same,MIC Streptococcus agalactiae (GC 4564),[3],2 µg/mL
same,MIC Streptococcus pneumoniae (ATCC 6301),[3],1 µg/mL
same,MIC Streptococcus pneumoniae (GC 1894),[3],0.25 µg/mL
same,MIC Streptococcus pneumoniae (GC 4565),[3],0.5 µg/mL
same,MIC Streptococcus pyogenes (GC 4563),[3],1 µg/mL
same,MIC Streptococcus pneumoniae (ATCC 6301),[3]; [17],1 µg/mL
same,MIC Streptococcus pneumoniae (GC 1894),[3]; [18],0.25 µg/mL
same,MIC Streptococcus pyogenes (GC 4563),[3]; [19],1 µg/mL
same,MIC Streptococcus agalactiae (GC 4564),[3]; [20],2 µg/mL
same,MIC Streptococcus pneumoniae (GC 4565),[3]; [21],0.5 µg/mL
same,MIC Staphylococcus aureus (ATCC 29213),[4],4 µg/mL
same,MIC Staphylococcus aureus (GC 1131),[4],4 µg/mL
same,MIC Staphylococcus aureus (GC 3051),[4],4 µg/mL
same,MIC Staphylococcus aureus (GC 3053),[4],8 µg/mL
same,MIC Staphylococcus aureus (GC 4541),[4],4 µg/mL
same,MIC Staphylococcus aureus (GC 4542),[4],4 µg/mL
same,MIC Staphylococcus aureus-SMITH (GC 4543),[4],2 µg/mL
same,MIC Staphylococcus aureus (GC 4544),[4],8 µg/mL
same,MIC Staphylococcus aureus (GC 4545),[4],4 µg/mL
same,MIC Staphylococcus haemolyticus (GC 4546),[4],2 µg/mL
same,MIC Coagulase Negative Staphylococcus (GC 4547),[4],4 µg/mL
same,MIC Coagulase Negative Staphylococcus (GC 4548),[4],1 µg/mL
same,MIC Coagulase Negative Staphylococcus (GC 4549),[4],2 µg/mL
same,MIC Coagulase Negative Staphylococcus (GC 4551),[4],8 µg/mL

# Source: patent publication US6914045B2, “Glycopeptide antibiotics” (Wyeth Holdings Corporation, priority 2001, dated 2005)
